The values below come from patent US11319283B2, “Substituted cyclobutylbenzene compounds as indoleamine 2,3-dioxygenase (IDO) inhibitors” (MERCK SHARP & DOHME CORP., priority 2017, dated 2022).

One assay addresses T1, TDO (Homo sapiens, UniProt P48775).
T1 construct: endogenous in cells; host or cells: SW48 cells (A2780 cells as control with minimal TDO activity)
Put plainly: TDO Cellular Assay in Frozen SW48 Cells. As to conditions: 300 uM L-tryptophan, about 48 hours, fluorescence readout. In kind it is cell-based. As to the method:
TDO Cellular Assay in Frozen SW48 Cells
SW48 cells were cultured in complete RPMI culture medium (90% RPMI, 10% heat-inactivated fetal bovine serum).
Compounds to be tested were serially diluted in ten 3-fold steps in DMSO starting from 10 mM DMSO stocks in Echo low volume plate(s). […] The cells were spun down at 350 g in a table top centrifuge for 5 minutes and suspended in same volume of RPMI assay medium. […] Sterile L-tryptophan (Sigma, Cat # T0254) was added to the cells with final concentration of 300 uM.
SW48 and A2780 cells were dispensed to the respective wells of 384-well assay plates containing the compounds. The plates were incubated for about 48 hours at a 37° C., 5% CO2 incubator. Afterwards, 12 μL of 0.5 M ethyl isonipecotate (Sigma Aldrich, Cat # E33505) in dimethyl sulfoxide were added into each well and the plates were sealed and incubated at 37° C. without CO2 overnight. The plates were centrifuged for 1 minute at 200×g. The resulting fluorescence was measured in a Spectramax plate reader (Molecular Devices) with a 400 nm excitation filter and a 510 nm emission filter.
The fluorescence intensity of each well was corrected for the background observed in wells with A2780 cells and was expressed as a fraction of the intensity observed in wells of SW48 cells and DMSO only. Potencies were calculated by linear least squares fit to the four parameter logistic IC50 equation.

For a further assay, the target named is IDO1 (Homo sapiens, UniProt P14902). Put plainly: IDO1 Cellular Assay in Hela Cells Stimulated with IFNγ. Particulars: Hela cells stimulated with IFNγ 100 ng/mL, 300 uM L-tryptophan, about 48 hours, fluorescence readout. Details: endogenous in cells; host or cells: HeLa cells stimulated with IFNγ (100 ng/mL). In kind it is cell-based. As to the method:
IDO1 Cellular Assay in Hela Cells Stimulated with IFNγ
Hela cells were cultured in complete Hela culture medium (90% EMEM, 10% heat-inactivated fetal bovine serum) and expanded to about 1×10^9 cells. The cells were then collected and frozen down at 1×10^7 cells/vial in 1 mL frozen medium (90% complete Hela culture medium, 10% DMSO)
Compounds to be tested were serially diluted in ten 3-fold steps in DMSO starting from 10 mM DMSO stocks in Echo low volume plate(s).
Frozen Hela cells were thawed and transferred into Hela assay medium (99% complete Hela culture medium, 1% Pen/Strep) with 20 mL medium/vial of cells. The cells were spun down at 250 g in a table top centrifuge for 5 min and suspended in same volume of Hela assay medium. The cells were then counted and adjusted to a density of 2×10^5 cells/ml in Hela assay medium. Sterile L-tryptophan were added to the cells with final concentration of 300 uM L-tryptophan. A small aliquot (2 mL/plate) of Hela cells were set aside and were not treated with IFNγ, to serve as the Max-E control.
Hela cells with and without IFNγ were dispensed to the respective wells of 384-well assay plates containing the compounds. The plates were incubated for about 48 hours at a 37° C., 5% CO2 incubator. Afterwards, […] of 0.5 M methyl isonipecotate in dimethyl sulfoxide were added into each well and the plates were sealed and incubated at 37° C. without CO2 overnight. The plates were centrifuged for 1 min at 200×g. The resulting fluorescence was measured in a Spectramax plate reader (Molecular Devices) with a 400 nm excitation filter and a 510 nm emission filter.
Potencies were calculated by linear least squares fit to the four parameter logistic IC50 equation.

T1 sequence (P48775 whole entry): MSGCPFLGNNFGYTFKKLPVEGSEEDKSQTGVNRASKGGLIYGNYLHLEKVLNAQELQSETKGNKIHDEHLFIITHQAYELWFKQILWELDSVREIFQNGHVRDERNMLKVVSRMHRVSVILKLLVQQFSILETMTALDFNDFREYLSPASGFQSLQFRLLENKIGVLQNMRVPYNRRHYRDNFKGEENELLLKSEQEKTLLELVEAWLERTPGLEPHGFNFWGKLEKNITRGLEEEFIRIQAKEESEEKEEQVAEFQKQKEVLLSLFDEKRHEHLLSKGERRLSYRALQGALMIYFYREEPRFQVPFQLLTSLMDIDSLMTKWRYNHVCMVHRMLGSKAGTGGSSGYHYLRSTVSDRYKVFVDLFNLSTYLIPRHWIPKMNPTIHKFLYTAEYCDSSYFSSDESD
Sequence of IDO1 (P14902 whole entry): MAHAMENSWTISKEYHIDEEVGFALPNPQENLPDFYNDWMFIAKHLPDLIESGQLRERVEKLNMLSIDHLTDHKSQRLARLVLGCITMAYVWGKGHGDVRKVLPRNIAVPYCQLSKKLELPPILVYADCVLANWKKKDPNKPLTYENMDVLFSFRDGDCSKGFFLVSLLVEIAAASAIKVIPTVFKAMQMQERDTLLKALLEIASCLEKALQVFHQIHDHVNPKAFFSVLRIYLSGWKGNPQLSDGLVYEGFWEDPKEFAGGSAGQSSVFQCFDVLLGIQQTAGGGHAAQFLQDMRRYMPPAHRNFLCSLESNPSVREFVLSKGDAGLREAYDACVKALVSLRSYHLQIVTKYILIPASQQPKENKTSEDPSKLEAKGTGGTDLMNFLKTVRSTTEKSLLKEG

In general, IC50 refers to the midpoint of a concentration-inhibition curve. Take `O=C(Nc1ccc(C2(C(=O)N[C@@H]3CCOC3)CCC2)cc1)c1cccc(Cl)c1` [Example 52, 3-chloro-N-[4-(1-{[(3R)-oxolan-3-yl]carbamoyl}cyclobutyl)phenyl]benzamide]: the IC50 is at least 10000 nM against TDO and 427 nM on IDO1.

As for `CCC1CC1NC(=O)C1(c2ccc(NC(=O)c3cccc(Cl)c3)cc2)CCC1` (centres unmarked) [Example 31, 3-chloro-N-(4-{1-[(2-ethylcyclopropyl)carbamoyl]cyclobutyl}phenyl)benzamide], the values for the IC50 at TDO and on IDO1 were at least 10000 nM and 8 nM, respectively.

In the case of `CC1CC1NC(=O)C1(c2ccc(NC(=O)c3cccc(Cl)c3)cc2)CCC1` (single isomer, unassigned) [Example 22, 3-chloro-N-(4-(1-((2-methylcyclopropyl)carbamoyl)cyclobutyl)phenyl)benzamide], the IC50 is at least 10000 nM at TDO and 35 nM against IDO1.

Regarding `CCOC1CC1NC(=O)C1(c2ccc(NC(=O)c3cccc(Cl)c3)cc2)CCC1` (centres unmarked) [Example 36, 3-chloro-N-(4-{1-[(2-ethoxycyclopropyl)carbamoyl]cyclobutyl}phenyl) benzamide], the results for the IC50 against TDO and against IDO1 were at least 10000 nM and 24 nM, respectively.

For the molecule `CCCNC(=O)C1(c2ccc(NC(=O)c3ccc(F)c(Cl)c3)cc2)CCC1` [Example 78, 3-chloro-4-fluoro-N-{4-[1-(propylcarbamoyI)cyclobutyl]phenyl}benzamide], the IC50 against TDO was at least 10000 nM; on IDO1, 10 nM.

Consider `O=C(NC1CCC(F)(F)CC1)c1ccc(C2(C(=O)Nc3ccc(F)cn3)CCC2)cc1` [Example 61, N-(4,4-difluorocyclohexyl)-4-{1-[(5-fluoropyridin-2-yl)carbamoyl]cyclobutyl} benzamide], for which the IC50 is at least 10000 nM at TDO and 1810 nM against IDO1.

In the case of `O=C(Nc1ccc(C2(C(=O)NC3CCCOC3)CCC2)cc1)c1cccc(Cl)c1` (centres unmarked) [Example 40, 3-chloro-N-(4-{1-[(oxan-3-yl)carbamoyl]cyclobutyl}phenyl)benzamide], the IC50 was at least 10000 nM on TDO and 39 nM at IDO1.

Regarding `O=C(Nc1ccc(C2(NC(=O)c3ccc(Cl)c(F)c3)CCC2)cc1)c1cccc(Cl)c1` [Example 8, 4-chloro-N-(1-{4-[(3-chlorobenzene-1-carbonyl)amino]phenyl}cyclobutyl)-3-fluorobenzamide], the half-maximal inhibitory concentration (IC50) on TDO was at least 10000 nM; against IDO1 it was 4 nM.

`O=C(Nc1ccc(C2(C(=O)NC3CN(CC(F)(F)F)C3)CCC2)cc1)c1cccc(Cl)c1` [Example 44, 3-chloro-N-[4-(1-{[1-(2,2,2-trifluoroethyl)azetidin-3-yl]carbamoyl}cyclobutyl)phenyl]benzamide]: the results for the IC50 against TDO and on IDO1 were at least 10000 nM and 709 nM, respectively.

`O=C(Nc1ccc(C2(C(=O)NCC(F)(F)F)CCC2)cc1)c1cccc(Cl)c1` [Example 49, 3-chloro-N-(4-{1-[(2,2,2-trifluoroethyl)carbamoyl]cyclobutyl}phenyl) benzamide]: the results for the IC50 against TDO and on IDO1 were at least 10000 nM and 126 nM, respectively.

As for `O=C(NC1CCCCC1)c1ccc(C2(C(=O)Nc3ccc(F)cn3)CCC2)cc1` [Example 60, N-cyclohexyl-4-{1-[(5-fluoropyridin-2-yl)carbamoyl]cyclobutyl} benzamide], the IC50 on TDO is at least 10000 nM; against IDO1, 489 nM.

On to `O=C(Nc1ccc(C2(C(=O)NCCC(F)(F)F)CC(F)(F)C2)cc1)c1cccc(Cl)c1` [Example 69, 3-chloro-N-(4-{3,3-difluoro-1-[(3,3,3-trifluoropropyl)carbamoyl]cyclobutyl}phenyl) benzamide], for which the IC50 was at least 10000 nM on TDO and 56 nM at IDO1.

As to `CC(C)(C)/N=C/c1cc(C2(C(=O)NCCC(F)(F)F)CCC2)ccc1NC(=O)c1cccc(Cl)c1` [Example 84, N-(2-[(E)-(tert-butylimino)melhyl]-4-{1-[(3,3,3-trifluoropropyl)carbamoyl]cyclobutyl}phenyl)-3-chlorobenzamide], the IC50 at TDO was at least 10000 nM; against IDO1, 176 nM.

For the molecule `O=C(Nc1ccc(C2(C(=O)Nc3ccc(F)cc3)CC(F)(F)C2)cc1)c1cncc(Cl)c1` [Example 75, 5-chloro-N-(4-{3,3-difluoro-1-[(4-fluorophenyl)carbamoyl]cyclobutyl}phenyl) pyridine-3-carboxamide], the IC50 on TDO was at least 10000 nM; against IDO1, 10 nM.

For the molecule `O=C(Nc1ccc(C2(C(=O)Nc3ccc(F)cc3)CC(F)(F)C2)cc1)c1cc(Cl)ccn1` [Example 74, 4-chloro-N-(4-{3,3-difluoro-1-[(4-fluorophenyl)carbamoyl]cyclobutyl}phenyl) pyridine-2-carboxamide], the values for the IC50 at TDO and on IDO1 were at least 10000 nM and 5 nM, respectively.

Turning to `O=C(Nc1ccc(C2(C(=O)N[C@H]3CCOC3)CCC2)cc1)c1cccc(Cl)c1` [Example 51, 3-chloro-N-[4-(1-{[(3S)-oxolan-3-yl]carbamoyl}cyclobutyl)phenyl]benzamide], the IC50 is at least 10000 nM against TDO and 404 nM against IDO1.

Regarding `CCOC(C)CNC(=O)C1(c2ccc(NC(=O)c3cccc(Cl)c3)cc2)CCC1` (centres unmarked) [Example 45, 3-Chloro-N-(4-(1-((2-ethoxypropyl)carbamoyl)cyclobutyl)phenyl)benzamide], the IC50 on TDO is at least 10000 nM; at IDO1 it was 58 nM.

Turning to `O=C(Nc1ccc(C2(NC(=O)c3ncccc3Cl)CCC2)cc1)c1cccc(Cl)c1` [Example 4, 3-chloro-N-(1-{4-[(3-chlorobenzene-1-carbonyl)amino]phenyl}cyclobutyl)pyridine-2-carboxamide], the IC50 on TDO is at least 10000 nM; against IDO1, 136 nM.

For the molecule `O=C(Nc1cccc(Cl)c1F)c1ccc(C2(C(=O)Nc3ccc(F)cn3)CCC2)cc1` [Example 59, N-(3-chloro-2-fluorophenyl)-4-(1-((5-fluoropyridin-2-yl)carbamoyl)cyclobutyl)benzamide], the results for the IC50 against TDO and against IDO1 were at least 10000 nM and 17 nM, respectively.

Take `O=C(Nc1ccc(C2(C(=O)Nc3ccc(F)nc3)CCC2)cc1)c1cccc(Cl)c1` [Example 29, 3-chloro-N-(4-{1-[(6-fluoropyridin-3-yl)carbamoyl]cyclobutyl}phenyl)benzamide]: the IC50 was at least 10000 nM against TDO and 4 nM at IDO1.

Regarding `O=C(Nc1ccc(C2(C(=O)Nc3ccc(F)cc3)CC(F)(F)C2)cc1)c1ccnc(C(F)(F)F)c1` [Example 76, N-(4-{3,3-difluoro-1-[(4-fluorophenyl)carbamoyl]cyclobutyl}phenyl)-2-(trifluoromethyl) pyridine-4-carboxamide], the half-maximal inhibitory concentration (IC50) at TDO amounted to 7640 nM; against IDO1 it was 20 nM.

On to `O=C(Nc1ccc(C2(NC(=O)c3cc(Cl)ccn3)CCC2)cc1)c1cccc(Cl)c1` [Example 5, 4-chloro-N-(1-{4-[(3-chlorobenzene-1-carbonyl)amino]phenyl}cyclobutyl)pyridine-2-carboxamide], for which the IC50 against TDO was at least 10000 nM; on IDO1 it was 136 nM.

Consider `O=C(Nc1ccc(C2(NC(=O)c3ccc(Cl)c(Cl)c3)CCC2)cc1)c1cccc(Cl)c1` [Example 11, 3,4-dichloro-N-(1-{4-[(3-chlorobenzene-1-carbonyl)amino]phenyl}cyclobutyl)benzamide], for which the IC50 on TDO is at least 10000 nM; against IDO1, 19 nM.

As to `CCO[C@H]1C[C@H]1NC(=O)C1(c2ccc(NC(=O)c3cccc(Cl)c3)cc2)CC(F)(F)C1` [Example 66, 3-chloro-N-[4-(1-{[(1R,2S)-2-ethoxycyclopropyl]carbamoyl}-3,3-difluorocyclobutyl)phenyl] benzamide], the IC50 on TDO is at least 10000 nM; against IDO1, 89 nM.

Regarding `O=C(Nc1ccc(C2(C(=O)Nc3ccc(F)cc3)CC(F)(F)C2)cc1)c1cccc(F)c1` [Example 72, N-(4-(3,3-Difluoro-1-((4-fluorophenyl)carbamoyl)cyclobutyl)phenyl)-3-fluorobenzamide], the IC50 on TDO is at least 10000 nM; on IDO1, 4 nM.
